Results from US4371464A, “Dipeptide sweetener” (Stamicarbon, B.V., priority 1980, dated 1983).

Assay: organoleptic research (sweetness compared with sucrose)
Conditions: reference sucrose

Compound: COC(=O)[C@@H](NC(=O)[C@H](CC(=O)O)NC(=O)NC=O)c1ccccc1 [II, N-(N'-formyl)-carbamyl-L-alpha-aspartyl-L-phenylglycinemethylester]
- sweetness relative to sucrose: 200 times sweeter than sucrose
